Assay results as given in US20220041597A1 (FORMA Therapeutics, Inc., priority 2018, published 2022).

Molecular target: USP9X (Homo sapiens, UniProt Q93008)
Experiment: Biochemical Assay for USP9X Inhibition (Ub-Rh110 fluorescence)
Conditions: Ub-Rh110 25 nM, 30 min preincubation
Description: Concentration and incubation times were optimized for the maximal signal-to-background while maintaining initial velocity conditions at a fixed substrate concentration (<<Km). […] To assay plates (pre-stamped with compound) was added 3 μL 2× Enzyme. The enzyme was preincubated for 30 minutes and then treated with 3 μL of 2× Substrate. […] The slope (best fit linear regression) of the five reads was used to normalize for inhibition. For all assays, data are reported as percent inhibition compared with control wells based on the following equation: […], wherein FLU is measured Fluorescence, AveLow is average Fluorescence of no enzyme control (n=64), and AveHigh is average Fluorescence of DMSO control (n=64). IC50 values are determined by curve fitting of the standard 4 parameter logistic fitting algorithm included in the Activity Base software package: IDBS XE Designer Model205. Data are fitted using the Levenburg Marquardt algorithm.

Chain of USP9X (Q93008 whole entry): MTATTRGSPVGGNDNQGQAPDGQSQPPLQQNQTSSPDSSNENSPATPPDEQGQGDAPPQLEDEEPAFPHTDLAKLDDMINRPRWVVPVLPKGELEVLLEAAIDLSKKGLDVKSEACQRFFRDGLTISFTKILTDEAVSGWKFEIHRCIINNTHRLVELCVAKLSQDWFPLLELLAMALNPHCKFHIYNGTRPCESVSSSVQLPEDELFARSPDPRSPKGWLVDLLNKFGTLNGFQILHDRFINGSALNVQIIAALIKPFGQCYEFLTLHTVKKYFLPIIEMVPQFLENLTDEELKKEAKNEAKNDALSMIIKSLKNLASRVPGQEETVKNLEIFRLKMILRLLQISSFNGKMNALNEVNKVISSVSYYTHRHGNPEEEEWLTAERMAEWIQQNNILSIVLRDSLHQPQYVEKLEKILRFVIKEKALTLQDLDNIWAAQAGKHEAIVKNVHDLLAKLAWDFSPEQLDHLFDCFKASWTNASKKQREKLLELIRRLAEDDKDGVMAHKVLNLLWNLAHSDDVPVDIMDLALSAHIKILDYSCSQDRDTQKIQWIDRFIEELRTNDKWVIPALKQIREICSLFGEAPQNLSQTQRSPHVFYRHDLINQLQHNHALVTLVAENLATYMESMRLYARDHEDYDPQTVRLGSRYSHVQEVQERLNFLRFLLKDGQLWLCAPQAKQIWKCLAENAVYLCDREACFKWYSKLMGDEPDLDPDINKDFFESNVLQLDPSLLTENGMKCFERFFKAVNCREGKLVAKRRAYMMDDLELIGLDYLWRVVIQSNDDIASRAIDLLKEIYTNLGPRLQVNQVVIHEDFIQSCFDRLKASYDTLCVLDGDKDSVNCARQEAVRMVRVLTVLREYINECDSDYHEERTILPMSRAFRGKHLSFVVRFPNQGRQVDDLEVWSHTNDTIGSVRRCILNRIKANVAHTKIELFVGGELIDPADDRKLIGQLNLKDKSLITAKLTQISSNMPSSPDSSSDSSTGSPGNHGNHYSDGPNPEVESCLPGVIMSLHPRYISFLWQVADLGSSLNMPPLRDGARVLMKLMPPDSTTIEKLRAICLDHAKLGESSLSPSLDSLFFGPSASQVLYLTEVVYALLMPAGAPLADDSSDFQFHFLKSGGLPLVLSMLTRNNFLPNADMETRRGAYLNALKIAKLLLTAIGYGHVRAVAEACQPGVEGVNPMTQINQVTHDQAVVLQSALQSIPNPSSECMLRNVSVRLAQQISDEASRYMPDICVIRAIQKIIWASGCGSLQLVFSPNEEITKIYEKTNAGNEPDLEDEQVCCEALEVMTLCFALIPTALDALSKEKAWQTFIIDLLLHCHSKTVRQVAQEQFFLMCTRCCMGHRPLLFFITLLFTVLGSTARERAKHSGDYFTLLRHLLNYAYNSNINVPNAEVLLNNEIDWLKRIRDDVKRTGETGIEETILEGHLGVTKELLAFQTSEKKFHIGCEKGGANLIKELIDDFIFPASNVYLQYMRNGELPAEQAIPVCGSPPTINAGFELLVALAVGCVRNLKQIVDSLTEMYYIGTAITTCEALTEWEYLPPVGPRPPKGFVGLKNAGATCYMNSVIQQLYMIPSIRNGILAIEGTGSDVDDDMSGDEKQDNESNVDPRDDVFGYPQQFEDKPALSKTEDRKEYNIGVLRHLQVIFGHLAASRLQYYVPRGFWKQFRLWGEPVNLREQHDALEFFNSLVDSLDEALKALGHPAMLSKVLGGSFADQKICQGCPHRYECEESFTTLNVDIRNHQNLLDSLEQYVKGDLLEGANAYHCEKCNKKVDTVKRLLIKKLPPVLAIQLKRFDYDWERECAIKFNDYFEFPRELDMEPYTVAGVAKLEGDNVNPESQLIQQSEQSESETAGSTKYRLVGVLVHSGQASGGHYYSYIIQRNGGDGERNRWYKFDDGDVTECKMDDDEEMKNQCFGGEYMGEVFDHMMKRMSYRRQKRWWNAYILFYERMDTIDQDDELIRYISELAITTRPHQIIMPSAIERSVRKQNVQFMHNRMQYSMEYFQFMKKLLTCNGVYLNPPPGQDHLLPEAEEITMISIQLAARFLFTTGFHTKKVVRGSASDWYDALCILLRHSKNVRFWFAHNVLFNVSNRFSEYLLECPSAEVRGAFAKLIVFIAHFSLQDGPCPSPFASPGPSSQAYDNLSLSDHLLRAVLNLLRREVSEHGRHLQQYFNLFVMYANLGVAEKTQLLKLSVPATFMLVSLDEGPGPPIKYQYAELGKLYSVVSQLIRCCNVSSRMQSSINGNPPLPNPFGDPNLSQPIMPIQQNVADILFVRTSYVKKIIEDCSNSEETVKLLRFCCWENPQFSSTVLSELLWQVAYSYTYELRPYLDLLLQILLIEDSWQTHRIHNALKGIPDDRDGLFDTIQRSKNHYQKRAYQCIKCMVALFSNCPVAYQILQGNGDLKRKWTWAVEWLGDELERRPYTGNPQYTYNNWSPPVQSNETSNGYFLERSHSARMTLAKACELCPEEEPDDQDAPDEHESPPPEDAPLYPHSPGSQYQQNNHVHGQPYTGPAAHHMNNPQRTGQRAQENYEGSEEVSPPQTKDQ

SMILES	IC50 (USP9X 0.025 nM) [µM]	IC50 (USP9X […]) [µM]
CN1CCC(Oc2cccc(C(O)c3cc4c(cn3)CN(S(=O)(=O)c3ccc(-c5ncco5)cc3)C4)c2)CC1 (single isomer, unassigned) [Example 78]	0.001 to 0.1	
CN1CCC(Oc2cccc(C(O)c3cc4c(cn3)CN(S(=O)(=O)c3ccc(-c5ncco5)cc3)C4)c2)CC1 (single isomer, unassigned) [Example 79]		0.001 to 0.1
O=S(=O)(c1ccc(-n2ccnc2)cc1)N1Cc2cnc(C(O)c3ccccc3)cc2C1 (centres unmarked) [Example 19]	> 25	
O=S(=O)(C1CCN(c2nccs2)CC1)N1Cc2cnc(C(O)c3ccccc3)cc2C1 (centres unmarked) [Example 24]	> 25	
O=S(=O)(C1CCN(c2ncco2)CC1)N1Cc2cnc(C(O)c3ccccc3)cc2C1 (centres unmarked) [Example 32, (2-{[1-(1,3-oxazol-2-yl)piperidin-4-yl]sulfonyl}-1H,2H,3H-pyrrolo[3,4-c]pyridine-6-yl)(phenyl)methanol]	> 25	
